Measurements from PubChem BioAssay AID434987 (Southern Research Specialized Biocontainment Screening …, 2010).
Activity calls are given as the source filed them. No rule for the calls is given here.

System: M. tuberculosis H37Rv growth inhibition with meropenem
Assay: dose response, H37Rv, with and without meropenem (AID 434987);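 also: growth over 7 days at 37 °C before Alamar Blue read on day 9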
[1] = M. tuberculosis H37Rv growth inhibition, measured here: IC50 without meropenem
[2] = M. tuberculosis H37Rv growth inhibition, measured here: IC90 without meropenem
[3] = measured here: IC90 with meropenem

Compound	IC50	IC50 [1] [µM]	IC90 [2] [µM]	IC90 [3] [µM]
CCOC(=O)NC1c2ccccc2Oc2ccccc21	37.6 µM	> 100	> 100	> 50
O=C(NCCC1=CCCCC1)c1ccc(Cl)c([N+](=O)[O-])c1	25.9 µM (inactive)	54.3	> 100	30.2
O=C(Cn1c(=O)n(CCCC(=O)NC2CCCC2)c(=O)c2ccccc21)NCCC1=CCCCC1	> 100 µM (inactive)	> 100	> 100	> 100
O=c1[nH]c(CSc2nnc3ccccn23)nc2ccccc12	> 100 µM (inactive)	> 100	> 100	> 100
Cc1nc(SCC(=O)NCc2ccco2)c2c3c(sc2n1)CCCC3	> 100 µM (inactive)	> 100	> 100	> 100
Cc1ccc(CSc2nccc(-c3c(C)nc4ccccn34)n2)cc1	7.91 µM	22.2	> 100	> 100
Cc1nn(C)c(C)c1C1C(C#N)=C(N)OC2=C1C(=O)CCC2 (stereo not drawn)	> 100 µM (inactive)	> 100	> 100	> 100
Cc1ccc(-n2c(SCC(=O)NCc3ccco3)nc3sc4c(c3c2=O)CC(C)(C)SC4)cc1	> 100 µM (inactive)	> 100	> 100	> 100
N/C(=N\c1nc2ccccc2o1)NC(=O)c1ccccc1Br	< 0.2 µM	28.4	> 100	> 100
NC(=O)CC(NC(=O)Cc1ccc(Br)cc1)c1ccc(NC2CCCCCC2)c([N+](=O)[O-])c1 (stereo not drawn)	72.9 µM (inactive)	> 100	> 100	> 100
N#C/C(=C(/O)COC(=O)CCc1ccc(S(=O)(=O)N2CCOCC2)cc1)c1nc2ccccc2[nH]1	46.4 µM (inactive)	> 100	> 100	> 100
O=C(Nc1ccccc1N1CCCC1)c1ccc2c(c1)OCO2	72.3 µM (inactive)	87.3	> 100	> 100
CCCn1nnnc1NC(=O)COc1ccc(Cl)cc1C	12.4 µM (inactive)	24.3	28.6	42.9
COc1ccc(C(=O)/C=C/c2cccs2)c(OC(=O)c2cccc([N+](=O)[O-])c2)c1	29.5 µM (inactive)	54.8	85.2	> 100
NS(=O)(=O)c1ccc(O)c(NC(=O)c2ccc([N+](=O)[O-])o2)c1	12.7 µM (inactive)	27.2	> 100	> 100
CC1(C)C[C@@H]1C(=O)N/C(=C\CCCCSC[C@H](N)C(=O)O)C(=O)O	> 100 µM (inactive)	> 100	> 100	> 100
c1ccc2c(c1)CC1CNCc3cccc(c31)S2 (stereo not drawn)	47.4 µM (inactive)	> 100	> 100	> 100
COCc1cc(=O)n2[nH]cc(-c3ccccc3)c2n1	10.1 µM	41.4	> 100	15.5
C/C(=N/NC(=O)c1cccs1)c1c(C)[nH]n(-c2nc3ccccc3s2)c1=O	1.44 µM (inactive)	1.52	1.69	1.58

Compound	IC50	IC50 [1] [µM]	IC90 [2] [µM]	IC90 [3] [µM]
C=CCn1c(SCc2ccc(C(=O)Nc3nccs3)cc2)nnc1-c1ccc(C)c(Cl)c1	95.3 µM (inactive)	> 100	> 100	> 100
CC(C)(C)Nc1nc(Nc2ccc([N+](=O)[O-])cc2)nc(NC(C)(C)C)n1	> 100 µM (inactive)	> 100	> 100	> 100
C=CCSc1nccc(-c2nn(-c3ccc(C)cc3)ccc2=O)n1	94.1 µM (inactive)	> 100	> 100	> 100
CCCCNC(=O)c1onc(CSc2ccc(OC)cc2)c1C(=O)O	23.9 µM (inactive)	46.4	53.1	27.2
O=C1Nc2c(ccc(Cl)c2Cl)C(=O)C1(F)c1ccccc1 (stereo not drawn)	23.7 µM	95.6	> 100	71.7
CCc1cc(C(N)=S)ccn1	8.46 µM	59.3	> 100	12.8
COC(=O)c1ccccc1NC(=O)CSCC(=O)Nc1ccc(F)cc1	39.7 µM (inactive)	94.9	> 100	> 100
CCc1cc2c(-c3ccccc3)cc(=O)oc2cc1OC(C)C(C)=O (stereo not drawn)	45.6 µM (inactive)	47.4	53.8	48.5
CC(C)(C)c1ccc(OCc2ccc(C(=O)N/N=C3\CC4CC=CC34)cc2)cc1 (stereo not drawn)	26.2 µM (inactive)	31.2	46.5	45.3
O=C(CSc1nnc(SCc2ccc(Cl)cc2)s1)c1ccc2c(c1)OCO2	> 100 µM (inactive)	> 100	> 100	> 100
COc1ccc(-c2c(-c3ccsc3)oc3ccc(N4CCOCC4)cc23)cc1	> 100 µM (inactive)	> 100	> 100	> 100
Cc1nc2sc3c(c2c2nnc(SCC(=O)NCc4ccco4)n12)CCCC3	82.6 µM (inactive)	80.4	> 100	> 100
O=C(Nc1c2c(nc3ccccc13)CCCC2)c1ccccc1F	42.6 µM (inactive)	74	> 100	> 50
O=C(Cn1nnc2c(cnn2-c2ccccc2)c1=O)N1CCN(c2ccccc2F)CC1	> 100 µM (inactive)	> 100	> 100	> 100
COc1ccc2oc(C(=O)Nc3nc4ccccc4[nH]3)c(C)c2c1	1.7 µM	36.9	> 100	> 100
COc1cc2nc(N3CCN(C(=O)OCc4ccccc4)[C@H](C(=O)NC(C)(C)C)C3)nc(N)c2cc1OC	64.5 µM (inactive)	65	92.7	84
COc1ccc(Cl)cc1NC(=O)NNC(=O)c1ccccn1	41.1 µM (inactive)	> 100	> 100	> 100
CCN=c1scc(-c2ccccc2)n1/N=C/c1ccccn1	93.2 µM (inactive)	> 100	> 100	> 100
CCOC(=O)c1sc(NC(=O)CN2CCN(c3ccc(OC)cc3)CC2)nc1C	68.2 µM (inactive)	98.9	> 100	> 100

Compound	IC50	IC50 [1] [µM]	IC90 [2] [µM]	IC90 [3] [µM]
COc1ccc(C(=O)NC(=S)NC(C)(C)C)cc1Br	> 100 µM (inactive)	> 100	> 100	> 100
S=C(NN=C1C2CC3CC(C2)CC1C3)Nc1ccccc1	45.7 µM (inactive)	48.7	54.7	51.4
COc1ccccc1NC(=O)Nc1nn(C)c2cccc(OC)c12	4.18 µM	21.1	> 100	> 100
CCn1c(=O)c2cc(C(=O)N(C)c3ccccc3F)sc2c2ccccc21	29.2 µM	> 100	> 100	> 100
Cc1ccc(C2=NN(C(=O)CN3C(=O)c4ccccc4S3(=O)=O)C(c3ccco3)C2)cc1 (stereo not drawn)	> 100 µM (inactive)	> 100	> 100	> 100
COc1ccc(NC(=O)COC(=O)Cc2ccc(-c3ccccc3)cc2)c(OC)c1	> 100 µM (inactive)	> 100	> 100	> 100
N#Cc1c(-c2cccs2)cc(-c2ccccn2)nc1N	6.92 µM	> 100	> 100	> 100
CN(Cc1ccccc1)C(=S)NC(=O)c1ccc(-c2ccccc2)cc1	7.23 µM	24.2	> 100	> 100
C=C(C)C(=O)O[C@H]1C/C(C)=C\C(=O)/C=C(\C)[C@H](O)[C@@H]2OC(=O)C(=C)[C@@H]21	10.3 µM	41.1	56	31.3
CC(C)(C)c1nn(-c2ccccc2)c2[nH]c(=O)c(CNc3ccc4c(c3)OCCO4)cc12	91.2 µM (inactive)	89.7	> 100	99.7
CC1CCN(CC(CS(=O)(=O)c2ccc([N+](=O)[O-])cc2)N2CCC(C)CC2)CC1 (stereo not drawn)	13.7 µM (inactive)	21	30.3	31.5
Cc1ccc(OCC(=O)Nc2ccc3c4c(cccc24)CC3)c(C)c1	1.71 µM	> 100	> 100	> 100
Cc1sc2nc(C(C)(C)C)oc(=O)c2c1C	> 100 µM (inactive)	> 100	> 100	> 100
CN(C)c1ccc(N=Nc2cccc3ccoc23)cc1	> 100 µM (inactive)	> 100	> 100	> 100
COCCNC(=O)COc1ccc(Oc2ccccc2)cc1	49.5 µM (inactive)	> 100	> 100	> 100
Nc1ncnc2c1c(-c1ccc(Oc3ccccc3)cc1)cn2C1CCCC1	17.1 µM (inactive)	26.4	42.5	60.3
O=C(COc1ccccc1)Nc1cccc(-c2nnc(-c3ccccc3)o2)c1	> 100 µM (inactive)	> 100	> 100	> 100
CCOC(=O)c1c(C)[nH]c(C)c1C(=O)COC(=O)c1ccc(S(=O)(=O)N(CC)CC)cc1	92.6 µM (inactive)	> 100	> 100	> 100
CSc1ccccc1C(=O)Nc1ccc2c(c1)OCCO2	35.4 µM (inactive)	80.5	> 100	> 100
